Experimental data: patent US9296725B2, “Heterocyclyl pyrimidine analogues as TYK2 inhibitors” (Cellzome Limited, priority 2012, dated 2016)
Where two headings read alike, the source gives them in different places.

Legend:
TYK2 = target: T1, TYK2 (Homo sapiens, UniProt P29597); assay: Kinobeads assay, TYK2 (competition binding in mixed Molt4/Ramos cell lysate, dot blot detection)
T1 construct: endogenous in cells; host or cells: Molt4 (ATCC CRL-1582) and Ramos (ATCC CRL-1596), mixed lysate 1:2
Protocol: (§1) The compounds of the present invention as described in the previous examples were tested in a Kinobeads™ assay as described for ZAP-70 (WO-A 2007/137867). Briefly, test compounds (at various concentrations) and the affinity matrix with the immobilized aminopyrido-pyrimidine ligand 24 were added to cell lysate aliquots and allowed to bind to the proteins in 10 the lysate sample. After the incubation time the beads with captured proteins were separated from the lysate. Bound proteins were then eluted and the presence of TYK2 and JAK2 was detected and quantified using specific antibodies in a dot blot procedure and the Odyssey infrared detection system. Dose response curves for individual kinases were generated and IC50 values calculated. Kinobeads™ assays have been previously described (WO-A 2007/137867; WO-A 2006/134056).
(§2) The affinity matrix was washed two times with 15 mL of 1×DP buffer containing 0.2% NP40 (IGEPAL® CA-630, Sigma, #13021) and then resuspended in 1×DP buffer containing 0.2% NP40 (3% beads slurry). 5×DP buffer: 250 mM Tris-HCl pH 7.4, 25% Glycerol, 7.5 mM MgCl2, 750 mM NaCl, 5 mM Na3VO4; filter the 5×DP buffer through a 0.22 μm filter and store in aliquots at −80° C. The 5×DP buffer is diluted with H2O to 1×DP buffer containing 1 mM DTT and 25 mM NaF.
(§3) Stock solutions of test compounds were prepared in DMSO. In a 96 well plate 30 μL solution of diluted test compounds at 5 mM in DMSO were prepared. Starting with this solution a 1:3 dilution series (9 steps) was prepared. For control experiments (no test compound) a buffer containing 2% DMSO was used.
(§4) Molt4 cells (ATCC catalogue number CRL-1582) and Ramos cells (ATCC catalogue number CRL-1596) were grown in 1 L Spinner flasks (Integra Biosciences, #182101) in suspension in RPMI 1640 medium (Invitrogen, #21875-034) supplemented with 10% Fetal Bovine Serum (Invitrogen) at a density between 0.15×10^6 and 1.2×10^6 cells/mL. Cells were harvested by centrifugation, washed once with 1×PBS buffer (Invitrogen, #14190-094) and cell pellets were frozen in liquid nitrogen and subsequently stored at −80° C. Cells were homogenized in a Potter S homogenizer in lysis buffer: 50 mM Tris-HCl, 0.8% NP40, 5% glycerol, 150 mM NaCl, 1.5 mM MgCl2, 25 mM NaF, 1 mM sodium vanadate, 1 mM DTT, pH 7.5. One complete EDTA-free tablet (protease inhibitor cocktail, Roche Diagnostics, 1873580) per 25 mL buffer was added. The material was dounced 10 times using a mechanized POTTER S, transferred to 50 mL falcon tubes, incubated for 30 minutes on ice and spun down for 10 minutes at 20,000 g at 4° C. (10,000 rpm in Sorvall SLA600, precooled). The supernatant was transferred to an ultracentrifuge (UZ)-polycarbonate tube (Beckmann, 355654) and spun for 1 hour at 100.000 g at 4° C. (33.500 rpm in Ti50.2, precooled). The supernatant was transferred again to a fresh 50 mL falcon tube, the protein concentration was determined by a Bradford assay (BioRad) and samples containing 50 mg of protein per aliquot were prepared. The samples were immediately used for experiments or frozen in liquid nitrogen and stored frozen at −80° C.
(§5) Cell lysate (approximately 50 mg protein per plate) was thawed in a water bath at room temperature and then stored on ice. To the thawed cell lysate 1×DP 0.8% NP40 buffer containing protease inhibitors (1 tablet for 25 mL buffer; EDTA-free protease inhibitor cocktail; Roche Diagnostics 1873580) was added in order to reach a final protein concentration of 10 mg/mL total protein. The diluted cell lysate was stored on ice. Mixed Molt4/Ramos lysate was prepared by combining one volume of Molt4 lysate and two volumes of Ramos lysate (ratio 1:2).
(§6) To a 96 well filter plate (Multiscreen HTS, BV Filter Plates, Millipore #MSBVN1250) were added per well: 100 μL affinity matrix (3% beads slurry), 3 μL of compound solution, and 50 μL of diluted lysate. Plates were sealed and incubated for 3 hours in a cold room on a plate shaker (Heidolph tiramax 1000) at 750 rpm. […]

JAK2 = target: T2, JAK2 (Homo sapiens, UniProt O60674); assay: Kinobeads assay, JAK2 (competition binding in mixed Molt4/Ramos cell lysate, dot blot detection); settings: read-out: JAK2 Band (Kinobeads assay potency, IC50)
T2 construct: endogenous in cells; host or cells: Molt4 (ATCC CRL-1582) and Ramos (ATCC CRL-1596), mixed lysate 1:2
T2 sequence (O60674 whole entry): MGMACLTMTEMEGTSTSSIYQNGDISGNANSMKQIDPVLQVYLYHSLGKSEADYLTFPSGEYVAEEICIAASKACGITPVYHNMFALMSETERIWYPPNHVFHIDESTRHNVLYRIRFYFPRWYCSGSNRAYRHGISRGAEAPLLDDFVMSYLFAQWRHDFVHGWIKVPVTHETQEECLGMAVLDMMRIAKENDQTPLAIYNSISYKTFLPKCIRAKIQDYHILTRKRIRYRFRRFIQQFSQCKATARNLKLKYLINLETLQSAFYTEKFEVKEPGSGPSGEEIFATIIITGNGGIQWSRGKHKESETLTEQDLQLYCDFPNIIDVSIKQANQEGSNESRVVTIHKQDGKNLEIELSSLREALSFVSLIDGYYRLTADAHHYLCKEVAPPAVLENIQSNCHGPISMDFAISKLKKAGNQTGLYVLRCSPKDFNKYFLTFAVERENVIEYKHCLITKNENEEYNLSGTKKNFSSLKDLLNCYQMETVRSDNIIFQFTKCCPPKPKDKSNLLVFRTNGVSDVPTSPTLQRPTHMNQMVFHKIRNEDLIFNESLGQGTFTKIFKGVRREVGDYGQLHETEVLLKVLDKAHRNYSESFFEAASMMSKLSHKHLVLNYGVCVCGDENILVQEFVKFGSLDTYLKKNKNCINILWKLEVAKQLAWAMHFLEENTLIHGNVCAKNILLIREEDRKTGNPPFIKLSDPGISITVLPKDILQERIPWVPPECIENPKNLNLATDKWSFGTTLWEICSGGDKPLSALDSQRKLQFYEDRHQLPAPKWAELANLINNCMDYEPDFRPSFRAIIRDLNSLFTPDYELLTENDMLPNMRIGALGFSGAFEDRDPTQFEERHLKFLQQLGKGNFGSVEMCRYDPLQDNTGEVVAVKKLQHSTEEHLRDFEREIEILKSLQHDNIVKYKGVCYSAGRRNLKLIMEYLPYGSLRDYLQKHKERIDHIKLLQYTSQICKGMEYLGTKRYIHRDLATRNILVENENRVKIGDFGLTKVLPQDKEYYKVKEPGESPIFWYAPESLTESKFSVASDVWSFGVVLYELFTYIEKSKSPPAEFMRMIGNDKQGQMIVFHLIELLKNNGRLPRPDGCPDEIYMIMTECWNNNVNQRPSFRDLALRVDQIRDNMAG
Protocol: as §1, §2, §3, §4, §5, §6

[1] = Kinobeads assay, Molt4/Ramos lysate, read-out: TYK2 Band (Kinobeads assay potency, IC50)

T1 sequence (P29597 whole entry): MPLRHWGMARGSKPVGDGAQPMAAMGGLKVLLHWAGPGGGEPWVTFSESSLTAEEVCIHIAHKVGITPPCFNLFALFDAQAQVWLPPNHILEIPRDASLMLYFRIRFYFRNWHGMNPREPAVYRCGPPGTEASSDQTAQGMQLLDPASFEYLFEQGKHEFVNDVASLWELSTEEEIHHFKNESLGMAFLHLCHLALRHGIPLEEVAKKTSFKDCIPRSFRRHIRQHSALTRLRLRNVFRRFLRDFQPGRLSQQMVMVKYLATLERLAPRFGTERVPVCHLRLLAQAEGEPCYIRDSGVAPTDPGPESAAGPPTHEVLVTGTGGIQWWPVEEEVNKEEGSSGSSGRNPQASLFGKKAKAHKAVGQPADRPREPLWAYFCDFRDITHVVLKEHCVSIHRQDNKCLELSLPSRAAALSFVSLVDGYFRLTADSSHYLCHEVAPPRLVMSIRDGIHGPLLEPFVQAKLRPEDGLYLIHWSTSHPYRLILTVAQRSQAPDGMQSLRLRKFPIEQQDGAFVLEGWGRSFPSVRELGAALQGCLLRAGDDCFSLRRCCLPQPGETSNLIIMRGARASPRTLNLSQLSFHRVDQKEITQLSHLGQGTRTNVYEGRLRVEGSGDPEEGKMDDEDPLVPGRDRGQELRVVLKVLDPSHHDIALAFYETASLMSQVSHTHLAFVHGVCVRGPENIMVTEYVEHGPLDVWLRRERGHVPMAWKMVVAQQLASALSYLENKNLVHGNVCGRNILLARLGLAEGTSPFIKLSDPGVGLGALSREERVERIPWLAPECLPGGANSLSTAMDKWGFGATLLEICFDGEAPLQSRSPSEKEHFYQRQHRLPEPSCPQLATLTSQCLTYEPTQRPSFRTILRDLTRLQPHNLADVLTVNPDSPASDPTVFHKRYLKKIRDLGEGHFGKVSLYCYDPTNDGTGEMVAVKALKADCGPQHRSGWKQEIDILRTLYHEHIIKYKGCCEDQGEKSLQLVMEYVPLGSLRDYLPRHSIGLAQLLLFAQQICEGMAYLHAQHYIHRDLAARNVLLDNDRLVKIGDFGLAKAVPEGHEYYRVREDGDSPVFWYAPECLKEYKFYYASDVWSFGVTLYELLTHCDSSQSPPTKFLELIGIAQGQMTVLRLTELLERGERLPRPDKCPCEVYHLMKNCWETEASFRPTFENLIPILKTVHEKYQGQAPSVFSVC

SMILES | IC50 (TYK2; [1]) [nM] | IC50 (JAK2) [nM] | IC50 (TYK2; read-out: TYK2 IC50) [nM]
Cn1cc(Nc2ncc(Cl)c(NCc3cc(S(C)(=O)=O)ccc3F)n2)cn1 [Example I-99] | 10 to 100 | 100 to 1000 | 
Cc1ccc(F)c(CNc2ccnc(Nc3cnn(CC(=O)N[C@@H](C)CO)c3)n2)c1F [Example I-130] | 10 to 100 | 1000 to 10000 | 
C[C@@H](CO)NC(=O)Cn1cc(Nc2nccc(NCc3c(Cl)cccc3Cl)n2)cn1 [Example I-3, (S)-2-(4-((4-((2,6-dichlorobenzyl)amino)pyrimidin-2-yl)amino)-1H-pyrazol-1-yl)-N-(1-hydroxypropan-2-yl)acetamide] | 10 to 100 | 1000 to 10000 | < 100
Cn1cc(Nc2nccc(NCc3c(Cl)ccc(Cl)c3F)n2)cn1 [Example I-60] | 10 to 100 | 100 to 1000 | 
COc1ccc(Cl)c(CNc2ccnc(Nc3cnn(CC(=O)N[C@H](C)CO)c3)n2)c1F [Example I-123] | ≤ 10 | 100 to 1000 | 
O=C(Cn1cc(Nc2nccc(NCc3c(F)cccc3Cl)n2)cn1)N[C@@H]1C[C@@H]1F [Example I-142] | 10 to 100 | 1000 to 10000 | 
O=C(O)Cn1cc(Nc2ncc(F)c(NCc3cccc(OC(F)F)c3)n2)cn1 [Example I-425] | 10 to 100 | > 10000 | 
Fc1cc(F)c(CNc2nc(Nc3cn[nH]c3)ncc2Cl)c(F)c1 [Example I-372] | 10 to 100 | 1000 to 10000 | 
OCCn1cc(Nc2ncc(Cl)c(NCc3cc(Br)cc(F)c3F)n2)cn1 [Example I-264] | 100 to 1000 | 100 to 1000 | 
CN1CCC(n2cc(Nc3ncc(Cl)c(NCc4ccccc4)n3)cn2)C1=O (stereo not drawn) [Example I-253] | 100 to 1000 | 100 to 1000 | 
CC1(C)CN(C(=O)Cn2cc(Nc3nccc(NCc4c(F)cc(F)cc4F)n3)cn2)C1 [Example I-458] | 10 to 100 | > 10000 | 
C[C@H]1COCCN1C(=O)Cn1cc(Nc2ncc(F)c(NCc3c(F)cc(F)cc3F)n2)cn1 [Example I-73] | ≤ 10 | 1000 to 10000 | 
O=C(Cn1cc(Nc2ncc(Cl)c(NCc3c(F)ccc(F)c3F)n2)cn1)NC1CC1 [Example I-335] | ≤ 10 | 100 to 1000 | 
Cn1cc(Nc2ncc(F)c(NCc3cc(F)ccc3S(C)(=O)=O)n2)cn1 [Example I-487] | 100 to 1000 | 100 to 1000 | 
CNC(=O)Cn1cc(Nc2ncc(F)c(NCc3c(Cl)cccc3Cl)n2)cn1 [Example I-329] | 10 to 100 | 1000 to 10000 | 
CN(C)C(=O)Cn1cc(Nc2ncc(Cl)c(NCc3cccc(OCC#N)c3)n2)cn1 [Example I-365] | 10 to 100 | 1000 to 10000 | 
Cc1cnc(Nc2cnn(CC(=O)N[C@H](C)CO)c2)nc1NCc1c(F)cc(F)cc1F [Example I-35] | ≤ 10 | 100 to 1000 | 
COc1ccc(F)c(CNc2nc(Nc3cnn(CC(=O)OC(C)C)c3)ncc2F)c1F [Example I-47] | 10 to 100 | > 10000 | 
N#CCOc1cccc(CNc2nc(Nc3cnn(CC(N)=O)c3)ncc2Cl)c1 [Example I-362] | 100 to 1000 | 1000 to 10000 | 
CNC(=O)Cn1cc(Nc2ncc(Cl)c(NCc3cccc(CS(C)(=O)=O)c3)n2)cn1 [Example I-445] | 100 to 1000 | 1000 to 10000 | 

SMILES | IC50 (TYK2; [1]) [nM] | IC50 (JAK2) [nM] | IC50 (TYK2; read-out: TYK2 IC50) [nM]
CN(C)CCNC(=O)Cn1cc(Nc2ncc(Cl)c(NCc3cccc(OCC#N)c3)n2)cn1 [Example I-367] | 100 to 1000 | 1000 to 10000 | 
CN(C)C(=O)Cn1cc(Nc2ncc(Cl)c(NCc3c(Cl)cccc3Cl)n2)cn1 [Example I-326] | 10 to 100 | 100 to 1000 | 
CNS(=O)(=O)c1ccccc1CNc1nc(Nc2cnn(C)c2)ncc1Cl [Example I-473] | 100 to 1000 | 100 to 1000 | 
N#Cc1cccc(CNc2nc(Nc3cnn(CCO)c3)ncc2Cl)c1 [Example I-182] | 10 to 100 | 100 to 1000 | 
O=C(Cn1cc(Nc2nccc(NCc3c(F)cc(F)cc3F)n2)cn1)N[C@@H]1C[C@@H]1F [Example I-102] | ≤ 10 | 1000 to 10000 | 
Cn1cc(Nc2ncc(Cl)c(NCc3cc(OC(F)F)ccc3F)n2)cn1 [Example I-412] | 10 to 100 | 1000 to 10000 | 
C[C@@H](O)Cn1cc(Nc2ncc(Cl)c(NCc3ccccc3F)n2)cn1 [Example I-256] | 100 to 1000 | 1000 to 10000 | 
COc1ccc(F)c(CNc2nc(Nc3cnn(CC(=O)NCC(C)C)c3)ncc2Cl)c1F [Example I-428] | 10 to 100 | 1000 to 10000 | 
CNC(=O)Cn1cc(Nc2ncc(Cl)c(NCc3ccccc3S(=O)(=O)N(C)C)n2)cn1 [Example I-356] | 100 to 1000 | 100 to 1000 | 
O=C(Cn1cc(Nc2nccc(NCc3c(F)cccc3Cl)n2)cn1)NCC(F)F [Example I-141] | 10 to 100 | 1000 to 10000 | 
Cc1cnc(Nc2cnn(CC(F)(F)F)c2)nc1NCc1cc(F)cc(F)c1F [Example I-351] | 1000 to 10000 | 1000 to 10000 | 
Cn1cc(Nc2ncc(Cl)c(NCc3cc(C(F)(F)F)ccc3F)n2)cn1 [Example I-277] | 100 to 1000 | 1000 to 10000 | 
Cc1cnc(Nc2cnn(CC(F)F)c2)nc1NCc1cccc(S(C)(=O)=O)c1 [Example I-466] | 100 to 1000 | 1000 to 10000 | 
N#Cc1cccc(CNc2nc(Nc3cnn(CCO)c3)ncc2F)c1 [Example I-167] | 10 to 100 | 1000 to 10000 | 
CC(C)(C)OC(=O)N1CCN(C(=O)Cn2cc(Nc3ncc(Cl)c(NCc4ccccc4)n3)cn2)CC1 [Example I-207] | 100 to 1000 | > 10000 | 
CC(C)NC(=O)Cn1cc(Nc2ncc(F)c(NCc3c(F)cccc3F)n2)cn1 [Example I-66] | ≤ 10 | 1000 to 10000 | 
Cc1ccc(F)c(CNc2nc(Nc3cnn(CC(=O)N(C)C)c3)ncc2Cl)c1F [Example I-283] | 10 to 100 | 1000 to 10000 | 
Cn1cc(Nc2ncc(Cl)c(NCc3cc(Br)ccc3F)n2)cn1 [Example I-218] | 100 to 1000 | 100 to 1000 | 
Cn1cc(Nc2nccc(NCc3c(Cl)ccc(F)c3F)n2)cn1 [Example I-68] | 10 to 100 | 100 to 1000 | 
Cc1cnc(Nc2cnn(CC(F)(F)F)c2)nc1NCc1cc(F)cc(F)c1 [Example I-350] | 1000 to 10000 | 1000 to 10000 | 
